From patent US20220213119A1, “THIENOHETEROCYCLIC DERIVATIVE, PREPARATION METHOD THEREFOR AND MEDICAL USE THEREOF” (Jiangsu Hengrui Medicine Ca, Lid., priority 2019, published 2022)

Legend:
[1] = Pharmacokinetics assay in mice; assay type: in vivo; settings: mouse, po, C57 mice (female), intragastric, 2 mg/kg, plasma; for Vd/F: read-out: Apparent distribution volume Vz/F; for AUC: read-out: Area under curve AUC; for CL/F: read-out: Clearance CLz/F; for half-life: read-out: Half Life T1/2 (converted); for Cmax: read-out: Plasma Concentration Cmax; for MRT: read-out: Residence Time MRT
Method: Mice were used as the test animal. The drug concentration in plasma at different time points was determined by LC/MS/MS method after administration of compound 3-P2, compound 4-P2, compound 9-P2, compound 10-P2, compound 12 and compound 15. The pharmacokinetic behavior of the compounds of the present disclosure in mice was studied, and the pharmacokinetic characteristics were evaluated.
54 of C57 mice (female) were equally divided into 6 groups, which were purchased from Shanghai Jiesijie Laboratory Animal Co., Ltd., with the animal production license number: SOCK (Shanghai) 2013-0006.
A certain amount of compound was weighted, followed by the addition of 5% volume of DMSO and 5% Tween 80 to dissolve it, then followed by the addition of 90% normal saline to prepare a colorless and clear solution of 0.1 mg/mL.
After an overnight fast, C57 mice were intragastrically administered the test compound at an administration dose of 2 mg/kg and an administration volume of 0.2 ml/10 g.
The mice were intragastrically administered the test compounds. 0.1mL of blood was taken before the administration and at 0.25, 0.5, 1.0, 2.0, 4.0, 6.0, 8.0, 11.0, 24.0 hours after the administration. The blood was placed in a heparinized test tube, and centrifuged at 3500 rpm for 10 minutes. The plasma was separated and stored at −20° C.
The content of the test compound in the plasma of mice after […] administration of the test compound at different concentrations was determined: 25 μl of mouse plasma at each time point after the administration was taken, followed by the addition of 50 μl of the internal standard camptothecin solution (100 ng/mL) and 200 μl of acetonitrile. The resulting solution was vortex-mixed for 5 minutes, and centrifuged for 10 minutes (4000 rpm). 4μl of the supernatant was taken from the plasma samples for LC/MS/MS analysis.

[2] = target: T1, ERK1 (Homo sapiens, UniProt P27361); assay: ERK1 enzyme activity test (ADP-Glo Kinase Assay); assay type: biochemical; settings: chemiluminescence
T1 construct: purchased R&D 1879-KS-010
T1 sequence (P27361 whole entry): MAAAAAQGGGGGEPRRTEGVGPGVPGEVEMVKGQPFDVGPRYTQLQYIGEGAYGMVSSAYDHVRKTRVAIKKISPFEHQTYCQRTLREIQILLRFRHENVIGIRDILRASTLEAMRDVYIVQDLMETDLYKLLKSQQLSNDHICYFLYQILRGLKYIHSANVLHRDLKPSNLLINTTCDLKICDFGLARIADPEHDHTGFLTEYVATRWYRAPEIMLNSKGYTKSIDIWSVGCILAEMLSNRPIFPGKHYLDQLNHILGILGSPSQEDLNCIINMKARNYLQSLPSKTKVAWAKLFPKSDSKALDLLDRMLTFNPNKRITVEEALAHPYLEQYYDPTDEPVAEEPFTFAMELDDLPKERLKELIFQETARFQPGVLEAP
Method: (§1) The purpose of this experiment is to detect the inhibitory ability of the compounds on the ERK1 enzyme activity and evaluate the activity of the compounds in vitro according to IC50. The ADP-Glo™ Kinase Assay Kit was used in this experiment. Under the action of enzyme, the substrate was phosphorylated and ADP was produced at the same time. The ADP-Glo Reagent was added to remove unreacted ATP in the reaction system. The kinase detection reagent was used to detect the ADP produced by the reaction. In the presence of the compound, the inhibition rate of the compound was calculated by measuring the signal value.
Enzyme and substrate preparation: ERK1 (1879-KS-010, R&D) and substrate (AS-61777, anaspec) were prepared to be 0.75 ng/μl and 100 μM respectively in the buffer. The enzyme solution and substrate solution were then prepared into a mixed solution at a volume ratio of 2:1 for later use. ATP was diluted to 300 μM with the buffer. The compounds were dissolved in DMSO (dimethyl sulfoxide, Shanghai Titan Scientific Co., Ltd.) to prepare a stock solution with an initial concentration of 20 mM, and then Bravo was used to prepare solutions of the compounds. Finally, a 3 μL of a mixed solution of enzyme and substrate, and 1 μL of different concentrations of the compound (the initial concentration is 50 μM, 4-fold dilution) were added to each well of the 384-well plate, and the plate was incubated at 30° C. for 10 minutes, and finally 1 μL of 300 μM ATP solution was added to each well, and the plate was incubated at 30° C. for 2 hours. Then 5 μL of ADP-Glo was added, and the plate was incubated at 30° C. for 40 minutes. Then 10 μL of Kinase detection buffer was added, and the plate was incubated at 30° C. for 40 minutes. The 384-well plate was taken out and placed in a microplate reader (BMG labtech, PHERAstar FS), and the chemiluminescence was measured by the microplate reader.
(§2) The data were processed and analyzed with Microsoft Excel, Graphpad Prism 5.

[3] = tested on: Colo205 cells; assay: In vitro proliferation inhibition test on Colo205 tumor cells (CellTiter-Glo); assay type: cell-based; settings: Homo sapiens, COLO 205, 72 h; Colo205 cell proliferation, 3 days of culture, CTG
Method: The purpose of this experiment is to test the inhibitory activity of the compounds on the proliferation of Colo205 cells (CCL-222, ATCC) in vitro. The cells were treated with different concentrations of compounds in vitro. After 3 days of culture, the cell proliferation was detected using CTG (CellTiter-Glo® Luminescent Cell Viability Assay, Promega, catalog number: G7573) reagent. The in vitro activity of the compounds was evaluated according to the IC50 value.
In the following, taking the in vitro proliferation inhibition test method of Colo205 cells as an example, the method in the present disclosure for testing the in vitro proliferation inhibitory activity of the compounds of the present disclosure is described. This method is also applicable to, but not limited to, the in vitro proliferation inhibitory activity test on other tumor cells.
Colo205 cells were digested, centrifuged and then resuspended. The single cell suspension was mixed well, and the density of viable cells was adjusted to 5.0×10^4 cells/ml with cell culture medium (RPMI1640+2% FBS), and 95 μl/well was added to a 96-well cell culture plate. Only 100 μl medium was added to the peripheral wells of the 96-well plate. The culture plate was incubated in an incubator for 24 hours (37° C., 5% CO2).
The compound was dissolved in DMSO (dimethyl sulfoxide, Shanghai Titan Scientific Co., Ltd.) and prepared into a stock solution with an initial concentration of 20 mM. The initial concentration of the small molecule compound is 2 mM, and then 4-fold diluted into to 9 points, and the tenth point is DMSO. Another 96-well plate was taken, 90 μl of cell culture medium (RPMI1640+2% FBS) was added to each well, then 10 μl of different concentrations of the test sample was added to each well, the mixture was mixed well, and then 5 μl of different concentrations of the test sample was added to the cell culture plate, and each sample has two duplicate holes. The culture plate was incubated in the incubator for 3 days (37° C., 5% CO2). The 96-well cell culture plate was taken out, 50 μl CTG solution was added to each well, and the plate was incubated for 10 minutes at room temperature. In a microplate reader (BMG labtech, PHERAstar FS), chemiluminescence was measured with the microplate reader.
as §2

[4] = target: T2, ERK2 (Homo sapiens, UniProt P28482); assay: ERK2 enzyme activity test (ADP-Glo Kinase Assay); assay type: biochemical; settings: chemiluminescence
T2 construct: purchased R&D 1230-KS-010
T2 sequence (P28482 whole entry): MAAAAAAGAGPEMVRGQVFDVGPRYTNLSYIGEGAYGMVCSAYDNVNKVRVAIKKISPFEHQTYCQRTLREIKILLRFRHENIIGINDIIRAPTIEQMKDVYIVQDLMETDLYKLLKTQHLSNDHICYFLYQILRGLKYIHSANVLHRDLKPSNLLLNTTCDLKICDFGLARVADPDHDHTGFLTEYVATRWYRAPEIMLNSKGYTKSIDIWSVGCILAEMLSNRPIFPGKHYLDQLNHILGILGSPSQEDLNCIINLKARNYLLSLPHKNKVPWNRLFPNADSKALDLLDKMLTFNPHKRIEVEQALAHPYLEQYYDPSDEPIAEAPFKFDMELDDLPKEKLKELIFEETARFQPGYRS
Method: as §1, with “ERK2” for “ERK1”
Enzyme and substrate preparation: ERK2 (1230-KS-010, R&D) and substrate (Custom peptides, Gill Biochemical) were prepared to be 0.75 ng/μl and 1500 μM in the buffer (40 mM Tris, 20 mM MgCl2, 0.1 mg/mL BSA, 50 μM DTT). The enzyme solution and substrate solution were then prepared into a mixed solution at a volume ratio of 2:1 for later use. ATP was diluted to 500 μM with the buffer. The compounds were dissolved in DMSO (dimethyl sulfoxide, Shanghai Titan Scientific Co., Ltd.) to prepare a stock solution with an initial concentration of 20 mM, and then Bravo was used to prepare solutions of the compounds. Finally, a 3 μL of a mixed solution of enzyme and substrate, and 1 μL of different concentrations of the compound (the initial concentration is 50 μM, 4-fold dilution) were added to each well of the 384-well plate, and the plate was incubated at 30° C. for 10 minutes, and finally 1 μL of 500 μM ATP solution was added to each well, and the plate was incubated at 30° C. for 2 hours. Then 5 μL of ADP-Glo was added, and the plate was incubated at 30° C. for 40 minutes. Then 10 μL of Kinase detection buffer was added, and the plate was incubated at 30° C. for 40 minutes. The 384-well plate was taken out and placed in a microplate reader (BMG labtech, PHERAstar FS), and the chemiluminescence was measured by the microplate reader.
as §2

Vd/F [1] | AUC [1] | CL/F [1] | half-life [1] | Cmax [1] | MRT [1] | IC50 [2] | IC50 [3] | IC50 [4] | SMILES
7.14 L/kg | 1820 ng·h/mL | 18.4 mL/min/kg | 4.49 h | 1480 ng/mL | 1.85 h | 19 nM | 18 nM | 3 nM | COc1cc(F)cc([C@@H](CO)NC(=O)[C@@H](C)N2CCc3sc(-c4nc(NC5CCOCC5)ncc4Cl)cc3C2=O)c1 [Example 9-P2, (R)-2-(2-(5-Chloro-2-((tetrahydro-2H-pyran-4-yl)amino)pyrimidin-4-yl)-4-oxo-6,7-dihydrothieno[3,2-c]pyridin-5(4H)-yl)-N-((S)-1-(3-fluoro-5-methoxyphenyl)-2-hydroxyethyl)prop ionamide]
1.99 L/kg | 1830 ng·h/mL | 18.2 mL/min/kg | 1.26 h | 1000 ng/mL | 1.64 h | 32 nM | 50 nM | 5 nM | COc1cc(F)cc([C@@H](CO)NC(=O)[C@@H](C)N2CCc3sc(-c4nc(Nc5ccnn5C)ncc4C)cc3C2=O)c1 [Example 10-P2, (R)-N-((S)-1-(3-Fluoro-5-methoxyphenyl)-2-hydroxyethyl)-2-(2-(5-methyl-2-((1-methyl-1 H-pyrazol-5-yl)amino)pyrimidin-4-yl)-4-oxo-6,7-dihydrothieno[3,2-c]pyridin-5(4H)-yl)pro pionamide]
4.77 L/kg | 1600 ng·h/mL | 20.8 mL/min/kg | 2.65 h | 1480 ng/mL | 1.05 h | 24 nM | 5 nM | 2 nM | COc1cc(F)cc([C@@H](CO)NC(=O)[C@@H](C)N2CCc3sc(-c4nc(N[C@@H](C)CO)ncc4Cl)cc3C2=O)c1 [Example 12, (R)-2-(2-(5-Chloro-2-(((S)-1-hydroxypropan-2-yl)amino)pyrimidin-4-yl)-4-oxo-6,7-dihydrothieno[3,2-c]pyridin-5(4H)-yl)-N-((S)-1-(3-fluoro-5-methoxyphenyl)-2-hydroxyethyl)prop ionamide]
1.76 L/kg | 1830 ng·h/mL | 18.2 mL/min/kg | 1.11 h | 1070 ng/mL | 1.85 h | 4 nM | 49 nM | 3 nM | COc1cc(F)cc([C@@H](CO)NC(=O)[C@@H](C)N2CCc3sc(-c4ccnc(Nc5ccnn5C)n4)cc3C2=O)c1 [Example 15, (R)-N-((S)-1-(3-Fluoro-5-methoxyphenyl)-2-hydroxyethyl)-2-(2-(2-((1-methyl-1H-pyrazol-5-yl)amino)pyrimidin-4-yl)-4-oxo-6,7-dihydrothieno[3,2-c]pyridin-5(4H)-yl)propionamide]
